# Experiments:
# [1] = tested on: soybean seeds; test: Seed germination assay (soybean seeds in Petri dishes, radicle emergence counted); format: in vivo; settings: control 24%; for percent germination of treated soybean seeds: 10^-7 M in DI-water, at 20 h, dark, room temperature; for Germination Yield: summary table, 10^-7 M, 20 h
# Method: Materials were all sterilized before use. An aqueous solution of the test compound (25 mL, 10^−7 M in DI-water) was prepared for a set of five repeat experiments. Five Petri dishes and 100 soybean seeds were used to test one compound. A piece of Whatman filter paper was used to cover the inner side of each Petri dish to allow uniform distribution of testing solution. Twenty soybean seeds were placed on the filter paper area of one Petri dish. Five mL of the test compound solution was carefully poured in the Petri dish. Control experiments were set up the same way with 20 soybean seeds and 5 mL of DI-water per dish without any compounds. The lid was placed on the Petri dish and sealed with Parafilm. Five dishes with repeat experiments were stacked. One stack of dishes was wrapped twice with aluminum foil to prevent the seeds from receiving any light. The stacks were transferred to an incubator maintained at room temperature and the seeds were germinated in the dark. After 20 h, the stacks were pulled out for measurement. The number of germinated seeds was counted and the percent germination on each dish was calculated. Radicle emergence was used as the germination indicator. The dishes were placed unwrapped at room temperature for one day and the number of germinated seeds was counted to ensure seeds were viable and that the germination results were not caused by poor seed quality. Dishes in which over 90% of the seeds germinated were considered normal. The standard deviation of five repeats was calculated. Test results with a 10% or lower standard deviation were considered good. Compounds acting as plant performance enhancers should promote a statistically significant increase in average percentage of germination compared to the control.
# [2] = tested on: soybean seeds; test: Plant growth assay (radical length of germinated soybean seeds); format: in vivo; settings: control 55%; for percentage of germinated soybean seeds with radical length greater than 1.5 cm: 10^-7 M, germinated 24 h, then light for additional 40 h; for Growth Assay: summary table, seeds with radical length > 1.5 cm
# Method: Seeds germinated for 24 h using the seed germination assay above were exposed to light for an additional 40 h. The radical length was measured and the percentage of germinating seeds with a radical length greater than 1.5 cm was determined.
Compound,percent germination of treated soybean seeds [1] [%],Germination Yield [1] [%],percentage of germinated soybean seeds with radical length greater than 1.5 cm [2] [%],Growth Assay [2] [%]
"CCCCCC/C=C/CCCCCCC/C=C/C(=O)NCC(=O)NC1C(OC2C(CO)OC(OC3C(CO)OC(OC4C(CO)OC(OC)C(NC(C)=O)C4O)C(NC(C)=O)C3O)C(NC(C)=O)C2O)OC(CO)C(O)C1O [Compound 21, Methyl 2-deoxy-2-N-({[(2E,11E)-octadeca-2,11-dienoylamino]acetyl}amino)β-D-glucopyranosyl(1→4)-2-acetamido-2-deoxy-β-D-glucopyranosyl-(1→4)-2 acetamido-2-deoxy-β-D-glucopyranosyl-(1→4)-2 acetamido-2-deoxy-β-D-glucopyranoside]",36,36,73,73
"CO[C@@H]1O[C@H](CO)[C@@H](O)[C@H](O)[C@H]1NC(=O)CNC(=O)/C=C/c1cccc(C(F)(F)F)c1 [Compound 17, methyl 2-deoxy-2-{[({(2E)-3-[3-(trifluoromethyl)phenyl]prop-2-enoyl}amino)acetyl]amino}-β-D-glucopyranoside]",44,44,86,86
"CO[C@@H]1O[C@H](CO)[C@@H](O)[C@H](O)[C@H]1NC(=O)[C@H](Cc1ccccc1)NC(=O)/C=C/C=C/c1ccccc1 [Compound 13, Methyl 2-deoxy-2-({N-[(2E,4E)-5-phenylpenta-2,4-dienoyl]phenylalanyl}amino)-β-D-glucopyranoside]",32,32,80,80
"COC(=O)C(CCC(=O)NC1C(OC)OC(CO)C(O)C1O)NC(=O)/C=C/C=C/c1ccccc1 (centres unmarked) [Compound 15, methyl 5-{[4,5-dihydroxy-6-(hydroxymethyl)-2-methoxytetrahydro-2H-pyran-3-yl]amino}-5-oxo-2-{[(2E,4E)-5-phenylpenta-2,4-dienoyl]amino}pentanoate]",31,31,74,74
"CCCCCC/C=C\CCCCCCCC(=O)NCC(=O)NC1C(OC)OC(CO)C(O)C1O [Compound 9, Methyl 2-deoxy-2-N-({[(9Z)-hexadec-9-enoylamino]acetyl}amino)-β-D-glucopyranoside]",33,33,73,73
"CCCCCC/C=C\CCCCCCC/C=C/C(=O)NCC(=O)NC1C(OC)OC(CO)C(O)C1O (centres unmarked) [Compound 7, methyl 2-deoxy-2-({[(2E,11Z)-octadeca-2,11-dienoylamino]acetyl}amino)hexopyranoside]",46,46,79,79
"CO[C@@H]1O[C@H](CO)[C@@H](O)[C@H](O)[C@H]1NC(=O)CNC(=O)/C=C/C=C/c1ccccc1 [Compound 11, methyl 2-deoxy-2-[({[(2E,4E)-5-phenylpenta-2,4-dienoyl]amino}acetyl)amino]-β-D-glucopyranoside]",39,39,82,82
"COC1OC(CO)C(O)C(O)C1NC(=O)CNC(=O)C#Cc1ccccc1 [Compound 19, Methyl 2-deoxy-2-N-({[(3-phenylprop-2-ynoyl)amino]acetyl}amino)-β-D-glucopyranoside]",30,30,71,71

# Reference: patent US20160021879A1, “SYNTHETIC LIPOAMINO ACID GLUCOSAMINE DERIVATIVES FOR IMPROVEMENT OF PLANT GROWTH AND YIELD” (E.I. DU PONT DE NEMOURS AND COMPANY, priority 2013, published 2016)
